Tests used:
[1] = target: Muscarinic acetylcholine receptor M2 (Homo sapiens) (UniProt P08172); test: Binding affinity to muscarinic M2 receptor (unknown origin) at 10 uM
[2] = target: Mu-type opioid receptor (Homo sapiens) (UniProt P35372); test: Binding affinity to MOR (unknown origin) at 10 uM
[3] = target: T1, 5-hydroxytryptamine receptor 2C (Homo sapiens) (UniProt P28335); test: Displacement of [3H]mesulergine from 5HT2C receptor (unknown origin) at 10 uM
T1 sequence (whole entry): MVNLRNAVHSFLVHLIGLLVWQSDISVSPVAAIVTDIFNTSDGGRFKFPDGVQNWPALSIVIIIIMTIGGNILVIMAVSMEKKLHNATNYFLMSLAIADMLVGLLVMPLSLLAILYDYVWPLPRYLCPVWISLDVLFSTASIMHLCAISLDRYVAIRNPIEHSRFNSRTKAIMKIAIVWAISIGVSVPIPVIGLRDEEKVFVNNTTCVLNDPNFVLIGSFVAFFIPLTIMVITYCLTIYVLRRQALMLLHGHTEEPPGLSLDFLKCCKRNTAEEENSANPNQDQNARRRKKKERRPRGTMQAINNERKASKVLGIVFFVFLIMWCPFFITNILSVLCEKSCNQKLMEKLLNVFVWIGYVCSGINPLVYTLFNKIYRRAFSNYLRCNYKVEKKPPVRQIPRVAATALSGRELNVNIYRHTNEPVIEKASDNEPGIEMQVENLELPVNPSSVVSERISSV

[4] = target: Histamine H3 receptor (Homo sapiens) (UniProt Q9Y5N1); test: Binding affinity to histamine H3 receptor (unknown origin) at 10 uM
[5] = target: 5-hydroxytryptamine receptor 7 (Homo sapiens) (UniProt P34969); test: Displacement of [3H]LSD from 5HT7 receptor (unknown origin) at 10 uM
[6] = target: Sodium-dependent noradrenaline transporter (Homo sapiens) (UniProt P23975); test: Binding affinity to NET (unknown origin) at 10 uM
[7] = target: T2, 5-hydroxytryptamine receptor 1A (Homo sapiens) (UniProt P08908); test: Displacement of [3H]-8-OH-DPAT from 5HT1A receptor (unknown origin) at 10 uM
T2 sequence (whole entry): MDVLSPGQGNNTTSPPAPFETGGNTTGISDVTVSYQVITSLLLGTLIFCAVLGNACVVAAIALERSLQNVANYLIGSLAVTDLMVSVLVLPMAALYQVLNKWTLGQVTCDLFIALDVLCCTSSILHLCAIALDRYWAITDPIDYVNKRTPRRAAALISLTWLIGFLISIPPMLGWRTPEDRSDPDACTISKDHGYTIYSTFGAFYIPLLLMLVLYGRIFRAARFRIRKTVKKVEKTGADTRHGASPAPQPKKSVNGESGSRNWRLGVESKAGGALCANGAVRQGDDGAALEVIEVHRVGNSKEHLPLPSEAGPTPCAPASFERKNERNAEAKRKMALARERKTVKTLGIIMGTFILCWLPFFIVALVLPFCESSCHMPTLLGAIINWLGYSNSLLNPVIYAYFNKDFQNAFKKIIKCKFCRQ

[8] = target: Alpha-1D adrenergic receptor (Homo sapiens) (UniProt P25100); test: Binding affinity to alpha1D adrenoceptor (unknown origin) at 10 uM
[9] = target: 5-hydroxytryptamine receptor 2B (Homo sapiens, UniProt P41595); test: Displacement of [3H]LSD from 5HT2B receptor (unknown origin) at 10 uM
Translocator protein = Translocator protein (Homo sapiens, UniProt P30536); test: Binding affinity to PBR (unknown origin)
[10] = target: Muscarinic acetylcholine receptor M1 (Homo sapiens, UniProt P11229); test: Binding affinity to muscarinic M1 receptor (unknown origin)
Chain of Muscarinic acetylcholine receptor M1 (P11229 whole entry): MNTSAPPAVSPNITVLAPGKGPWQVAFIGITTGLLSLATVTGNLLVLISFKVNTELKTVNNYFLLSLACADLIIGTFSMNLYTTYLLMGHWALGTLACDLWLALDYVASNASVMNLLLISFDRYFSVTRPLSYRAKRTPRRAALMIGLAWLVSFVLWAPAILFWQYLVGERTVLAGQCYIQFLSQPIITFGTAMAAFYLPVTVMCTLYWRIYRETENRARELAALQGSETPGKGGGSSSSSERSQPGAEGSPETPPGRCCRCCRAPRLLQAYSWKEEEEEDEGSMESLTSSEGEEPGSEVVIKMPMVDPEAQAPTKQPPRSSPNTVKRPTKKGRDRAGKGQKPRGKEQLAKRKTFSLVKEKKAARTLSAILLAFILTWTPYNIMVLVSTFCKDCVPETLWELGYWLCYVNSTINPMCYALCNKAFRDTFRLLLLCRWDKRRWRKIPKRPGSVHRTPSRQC

Chain of 5-hydroxytryptamine receptor 2B (P41595 whole entry): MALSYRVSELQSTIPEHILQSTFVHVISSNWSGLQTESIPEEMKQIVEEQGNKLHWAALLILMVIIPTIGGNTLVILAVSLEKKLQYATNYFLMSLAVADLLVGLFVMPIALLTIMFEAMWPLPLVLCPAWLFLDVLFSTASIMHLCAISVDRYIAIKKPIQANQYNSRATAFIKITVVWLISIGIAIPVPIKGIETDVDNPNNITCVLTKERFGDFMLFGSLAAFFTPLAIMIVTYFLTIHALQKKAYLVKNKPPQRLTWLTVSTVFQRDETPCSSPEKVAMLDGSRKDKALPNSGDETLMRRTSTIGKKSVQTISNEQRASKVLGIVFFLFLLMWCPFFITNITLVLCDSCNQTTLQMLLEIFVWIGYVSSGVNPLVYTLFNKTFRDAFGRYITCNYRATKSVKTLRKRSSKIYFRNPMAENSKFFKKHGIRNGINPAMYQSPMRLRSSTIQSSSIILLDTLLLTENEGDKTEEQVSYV
Chain of Muscarinic acetylcholine receptor M2 (Homo sapiens) (P08172 whole entry): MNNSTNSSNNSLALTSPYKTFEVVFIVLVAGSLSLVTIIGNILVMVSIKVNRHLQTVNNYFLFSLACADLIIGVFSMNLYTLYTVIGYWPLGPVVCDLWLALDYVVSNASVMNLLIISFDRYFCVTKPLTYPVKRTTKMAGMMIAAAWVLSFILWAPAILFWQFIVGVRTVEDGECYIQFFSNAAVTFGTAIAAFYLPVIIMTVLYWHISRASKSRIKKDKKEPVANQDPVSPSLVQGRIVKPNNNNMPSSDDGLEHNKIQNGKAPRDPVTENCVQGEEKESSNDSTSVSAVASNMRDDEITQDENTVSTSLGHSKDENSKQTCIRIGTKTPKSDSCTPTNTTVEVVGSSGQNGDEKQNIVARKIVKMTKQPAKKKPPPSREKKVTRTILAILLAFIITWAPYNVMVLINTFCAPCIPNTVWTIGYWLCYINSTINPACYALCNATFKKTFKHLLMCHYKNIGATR
Chain of 5-hydroxytryptamine receptor 7 (Homo sapiens) (P34969 whole entry): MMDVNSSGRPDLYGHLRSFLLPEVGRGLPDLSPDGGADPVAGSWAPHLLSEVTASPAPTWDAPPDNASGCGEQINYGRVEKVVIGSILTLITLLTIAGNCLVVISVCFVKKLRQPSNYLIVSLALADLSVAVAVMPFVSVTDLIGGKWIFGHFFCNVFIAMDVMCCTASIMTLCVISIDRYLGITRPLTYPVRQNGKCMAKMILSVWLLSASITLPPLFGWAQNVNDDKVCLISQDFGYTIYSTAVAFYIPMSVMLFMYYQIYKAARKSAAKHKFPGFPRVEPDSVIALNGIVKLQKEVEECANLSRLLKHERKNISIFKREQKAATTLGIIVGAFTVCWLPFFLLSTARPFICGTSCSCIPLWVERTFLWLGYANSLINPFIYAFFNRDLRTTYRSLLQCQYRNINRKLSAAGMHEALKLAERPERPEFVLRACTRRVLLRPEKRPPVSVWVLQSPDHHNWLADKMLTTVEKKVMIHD
Chain of Histamine H3 receptor (Homo sapiens) (Q9Y5N1 whole entry): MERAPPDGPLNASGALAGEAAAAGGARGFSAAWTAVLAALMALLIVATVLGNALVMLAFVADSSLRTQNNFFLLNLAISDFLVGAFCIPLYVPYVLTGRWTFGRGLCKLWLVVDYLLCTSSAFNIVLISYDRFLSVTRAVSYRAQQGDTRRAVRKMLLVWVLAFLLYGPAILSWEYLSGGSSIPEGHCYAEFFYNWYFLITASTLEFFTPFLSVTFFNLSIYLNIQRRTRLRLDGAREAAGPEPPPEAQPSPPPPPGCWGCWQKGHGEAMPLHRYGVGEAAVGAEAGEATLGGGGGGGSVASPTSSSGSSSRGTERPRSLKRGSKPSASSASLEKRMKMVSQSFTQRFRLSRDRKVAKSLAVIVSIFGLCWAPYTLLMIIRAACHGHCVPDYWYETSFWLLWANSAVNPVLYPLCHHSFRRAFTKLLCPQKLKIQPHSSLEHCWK
Chain of Translocator protein (P30536 whole entry): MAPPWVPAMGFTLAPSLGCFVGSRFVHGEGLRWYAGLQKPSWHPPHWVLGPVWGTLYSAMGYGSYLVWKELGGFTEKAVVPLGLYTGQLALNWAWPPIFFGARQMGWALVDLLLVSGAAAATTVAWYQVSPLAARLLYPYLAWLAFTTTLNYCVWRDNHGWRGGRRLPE
Chain of Alpha-1D adrenergic receptor (Homo sapiens) (P25100 whole entry): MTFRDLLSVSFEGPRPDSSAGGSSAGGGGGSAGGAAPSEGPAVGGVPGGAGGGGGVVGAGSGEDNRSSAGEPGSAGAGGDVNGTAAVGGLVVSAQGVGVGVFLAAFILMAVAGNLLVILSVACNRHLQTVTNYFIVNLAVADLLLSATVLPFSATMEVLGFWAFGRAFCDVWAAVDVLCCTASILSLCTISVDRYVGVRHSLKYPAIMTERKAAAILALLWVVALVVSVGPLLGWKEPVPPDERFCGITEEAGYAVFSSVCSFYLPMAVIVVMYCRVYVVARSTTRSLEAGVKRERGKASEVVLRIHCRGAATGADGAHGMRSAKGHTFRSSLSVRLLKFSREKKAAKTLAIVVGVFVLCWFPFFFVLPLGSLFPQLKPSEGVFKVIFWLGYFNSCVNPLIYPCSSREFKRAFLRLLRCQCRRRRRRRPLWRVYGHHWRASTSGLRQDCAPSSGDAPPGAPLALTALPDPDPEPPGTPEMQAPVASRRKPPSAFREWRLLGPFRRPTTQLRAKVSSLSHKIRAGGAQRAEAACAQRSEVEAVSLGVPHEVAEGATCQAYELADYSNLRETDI
Chain of Sodium-dependent noradrenaline transporter (Homo sapiens) (P23975 whole entry): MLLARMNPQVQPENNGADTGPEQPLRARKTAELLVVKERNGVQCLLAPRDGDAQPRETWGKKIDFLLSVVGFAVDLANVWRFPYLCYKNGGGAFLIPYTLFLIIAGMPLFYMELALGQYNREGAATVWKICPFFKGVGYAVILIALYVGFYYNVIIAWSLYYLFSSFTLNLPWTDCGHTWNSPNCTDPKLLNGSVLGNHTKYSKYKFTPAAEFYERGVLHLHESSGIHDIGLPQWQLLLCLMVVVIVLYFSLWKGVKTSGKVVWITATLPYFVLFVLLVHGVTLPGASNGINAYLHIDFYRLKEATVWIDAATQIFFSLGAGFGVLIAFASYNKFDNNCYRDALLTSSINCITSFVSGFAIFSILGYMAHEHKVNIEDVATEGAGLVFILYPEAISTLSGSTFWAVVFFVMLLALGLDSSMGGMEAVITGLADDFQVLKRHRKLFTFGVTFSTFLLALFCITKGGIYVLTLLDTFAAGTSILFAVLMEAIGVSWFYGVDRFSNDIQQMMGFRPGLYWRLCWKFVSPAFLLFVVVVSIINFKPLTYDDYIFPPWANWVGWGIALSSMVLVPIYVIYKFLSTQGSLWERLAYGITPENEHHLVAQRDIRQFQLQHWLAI
Chain of Mu-type opioid receptor (Homo sapiens) (P35372 whole entry): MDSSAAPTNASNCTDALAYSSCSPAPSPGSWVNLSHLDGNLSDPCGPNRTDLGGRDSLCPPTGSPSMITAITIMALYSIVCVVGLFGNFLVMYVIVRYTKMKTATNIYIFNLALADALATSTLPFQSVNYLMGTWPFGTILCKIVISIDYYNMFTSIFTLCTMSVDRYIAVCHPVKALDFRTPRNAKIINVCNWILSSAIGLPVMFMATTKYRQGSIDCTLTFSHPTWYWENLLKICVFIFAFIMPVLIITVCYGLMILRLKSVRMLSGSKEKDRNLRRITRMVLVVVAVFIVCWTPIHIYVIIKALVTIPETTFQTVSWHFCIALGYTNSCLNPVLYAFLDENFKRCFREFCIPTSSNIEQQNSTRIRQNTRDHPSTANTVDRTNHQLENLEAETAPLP

`COc1cc2c3c(c1OC)-c1cc4c(cc1CC3N(C)CC2c1ccccc1)OCO4` (stereo unspecified) was tested, and the inhibition [1] was < 50%, the inhibition [2] was < 50% and the inhibition [3] was 31.9%. For the same compound, the inhibition [4] was < 50%, the inhibition [5] was 36.1% and the inhibition [6] was < 50%. The inhibition [7] was 5.5%, the inhibition [8] was < 50% and the inhibition [9] was 92.2%. For the same compound, the Ki (Translocator protein) was 2.9 µM and the Ki [10] was > 10 µM.
